Source: patent US20230277831A1, “Focused Ultrasound Device” (Washington University, priority 2022, published 2023)

Assay: Evans blue delivery after FUS-BBBO, fluorescence imaging of brain sections
Format: in vivo, mice (C57BL/6)
Conditions: mouse brain
Protocol: Following the FUS-BBBO treatment as described in Example 3, the brains of the mice were harvested and harvested sections were fluorescence imaged using an LI-COR imaging system (Pearl Trilogy; 700 Channel laser source (Ex 785 nm/Em 820 nm); resolution 85 μm). Enhanced fluorescence signals associated with the delivery of Evans blue through the FUS-disrupted BBB were determined by comparing sections from FUS-BBBO and corresponding untreated brain halves.
Evans Blue has been commonly used as a model drug for evaluating the FUS-BBBO drug delivery outcome. The harvested mouse brains were cut into 1-mm thick coronal sections using the mouse brain matrix (World Precision Instrument, Sarasota, Fla., USA). Fluorescence images of brain sections were taken using a LI-COR imaging system (Pearl Trilogy; 700 Channel laser source (Ex 785 nm/Em 820 nm); resolution 85 μm) and analyzed using Matlab (Mathworks, Natick, Mass., USA). […] Pixels with intensities above the background autofluorescence intensity were identified for each brain section. Evans blue delivery volume was calculated by the total number of pixels with enhanced fluorescence signal in all the brain sections. The mean fluorescence intensity of pixels with enhanced fluorescence signal in all the brain sections was calculated to represent the signal intensity of the delivered Evans blue.

Cc1cc(-c2ccc(/N=N/c3ccc4c(S(=O)(=O)O)cc(S(=O)(=O)O)c(N)c4c3O)c(C)c2)ccc1/N=N/c1ccc2c(S(=O)(=O)O)cc(S(=O)(=O)O)c(N)c2c1O [Evans Blue]
Evans Blue extravasation (FUS at 0.4 MPa and 0.57 MPa for all frequencies (1.5, 3.0, 6.0 MHz) and 0.2 MPa for 1.5 MHz): observed
Evans Blue extravasation (FUS at 3.0 MHz and 6.0 MHz at 0.2 MPa): not detectable
Evans Blue delivery volume (i.v., FUS-BBBO at 1.5 MHz, 0.57 MPa (largest BBB opening volume), mean±SD): 69±3.8 mm^3
Evans Blue signal intensity (i.v., FUS-BBBO at 1.5 MHz, 0.57 MPa, mean fluorescence intensity, mean±SD): 47±8.2
Evans Blue delivery volume (i.v., FUS-BBBO at 6 MHz, 0.4 MPa (smallest BBB opening volume), mean±SD): 8.9±1.3 mm^3
